Source: patent US10988477B2 (Merck Patent GmbH, priority 2018, dated 2021)

How the values were obtained:
[1] = molecular target: intracellular GCN2 (phosphorylation of the GCN2 substrate eIF2α) (Homo sapiens, UniProt Q9P2K8); test: GCN2 cellular inhibition assay (AlphaScreen SureFire P-eIF2α Ser51, borrelidin-treated U2OS cells); format: cell-based; conditions: compounds of Formula II; biomarker assay, phosphorylated eIF2α Ser51 in borrelidin-treated U2OS cells
Method in brief: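 Borrelidin at 10 μM is added to U2OS cells immediately after compound (4-fold dilution series, 40 μM top final) for 1 h at 37 °C. Phosphorylated eIF2α Ser51 in lysates is quantified by AlphaScreen and expressed as percent inhibition against borrelidin-stimulated controls.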

GCN2 kinase = GCN2 kinase (Homo sapiens, UniProt Q9P2K8); test: GCN2 enzyme inhibition assay (Transcreener ADP2 fluorescence polarization); format: biochemical; conditions: compounds of Formula II; 280 μM ATP, 4 nM GCN2 kinase
Method in brief: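 Kinase activity is followed as ADP formation, measured by fluorescence polarization, using 4 nM enzyme with 280 μM ATP and 200 μM (RS)7 peptide at pH 7.5 and 25 °C for 1 h. Values come from a non-linear tight-binding fit.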

Chain of intracellular GCN2 (phosphorylation of the GCN2 substrate eIF2α) (Q9P2K8 whole entry): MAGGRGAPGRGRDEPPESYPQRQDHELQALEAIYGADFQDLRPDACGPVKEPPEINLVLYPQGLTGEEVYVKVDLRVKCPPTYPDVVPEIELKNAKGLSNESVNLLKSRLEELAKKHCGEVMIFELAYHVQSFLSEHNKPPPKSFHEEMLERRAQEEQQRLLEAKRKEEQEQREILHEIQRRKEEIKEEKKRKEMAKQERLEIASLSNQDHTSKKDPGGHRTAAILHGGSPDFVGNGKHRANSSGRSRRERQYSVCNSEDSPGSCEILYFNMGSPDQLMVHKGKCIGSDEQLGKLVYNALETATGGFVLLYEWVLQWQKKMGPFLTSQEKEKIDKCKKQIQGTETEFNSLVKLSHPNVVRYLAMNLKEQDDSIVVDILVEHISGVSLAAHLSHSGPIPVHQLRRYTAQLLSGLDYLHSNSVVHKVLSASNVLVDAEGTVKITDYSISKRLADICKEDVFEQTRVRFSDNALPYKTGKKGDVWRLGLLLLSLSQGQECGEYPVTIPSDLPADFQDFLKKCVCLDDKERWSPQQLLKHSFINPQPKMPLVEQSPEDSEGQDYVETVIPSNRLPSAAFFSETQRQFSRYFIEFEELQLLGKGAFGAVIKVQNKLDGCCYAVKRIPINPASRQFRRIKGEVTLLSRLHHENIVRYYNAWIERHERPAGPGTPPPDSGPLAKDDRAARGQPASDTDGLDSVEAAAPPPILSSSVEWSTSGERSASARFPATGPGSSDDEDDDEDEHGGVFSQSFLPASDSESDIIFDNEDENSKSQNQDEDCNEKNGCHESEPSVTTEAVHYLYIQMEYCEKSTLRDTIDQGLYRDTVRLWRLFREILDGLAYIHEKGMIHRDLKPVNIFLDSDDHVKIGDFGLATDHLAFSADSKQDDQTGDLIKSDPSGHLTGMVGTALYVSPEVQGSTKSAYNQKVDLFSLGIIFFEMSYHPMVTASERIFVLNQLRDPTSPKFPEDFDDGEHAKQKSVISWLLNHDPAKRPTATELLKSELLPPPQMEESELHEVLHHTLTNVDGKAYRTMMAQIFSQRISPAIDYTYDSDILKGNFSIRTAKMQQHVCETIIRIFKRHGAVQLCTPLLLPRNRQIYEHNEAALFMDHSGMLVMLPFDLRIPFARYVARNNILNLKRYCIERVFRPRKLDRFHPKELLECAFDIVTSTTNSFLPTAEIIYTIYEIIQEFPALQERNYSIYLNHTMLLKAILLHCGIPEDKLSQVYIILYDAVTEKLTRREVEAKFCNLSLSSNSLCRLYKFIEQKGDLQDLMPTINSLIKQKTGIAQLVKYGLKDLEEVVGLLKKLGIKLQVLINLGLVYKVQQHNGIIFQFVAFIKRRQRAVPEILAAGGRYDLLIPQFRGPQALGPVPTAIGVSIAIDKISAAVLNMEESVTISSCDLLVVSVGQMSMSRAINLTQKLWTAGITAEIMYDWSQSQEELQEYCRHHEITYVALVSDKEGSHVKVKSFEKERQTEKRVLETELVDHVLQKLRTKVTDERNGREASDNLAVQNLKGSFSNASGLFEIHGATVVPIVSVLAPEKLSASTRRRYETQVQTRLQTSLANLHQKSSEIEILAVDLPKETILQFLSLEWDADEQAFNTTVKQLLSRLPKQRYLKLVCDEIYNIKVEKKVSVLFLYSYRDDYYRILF
Chain of GCN2 kinase (Q9P2K8 whole entry): as above

SMILES | IC50 [1] [nM] | Ki (GCN2 kinase) [nM]
FC(F)c1ccc2ncc(-c3cc(N4CCOCC4)ncn3)n2n1 [II-251, 4-(6-(6-(Difluoromethyl)imidazo[1,2-b]pyridazin-3-yl)pyrimidin-4-yl)morpholine] | > 5000 | 10 to 1000
FC(F)c1ccc2ncc(-c3cc(N4CC5(COC5)C4)ncn3)n2n1 [II-252, 6-(6-(6-(Difluoromethyl)imidazo[1,2-b]pyridazin-3-yl)pyrimidin-4-yl)-2-oxa-6-azaspiro[3.3]heptane] | > 5000 | 10 to 1000
CC(=O)N1CCC(c2cc(-c3cnc4ccc(C(F)F)nn34)ncn2)C1 (centres unmarked) [II-253, 1-(3-(6-(6-(Difluoromethyl)imidazo[1,2-b]pyridazin-3-yl)pyrimidin-4-yl)pyrrolidin-1-yl)ethan-1-one] | > 5000 | 10 to 1000
O=C(NCCO)N1CCC(c2cc(-c3cnc4ccc(C(F)F)nn34)ncn2)C1 (centres unmarked) [II-254, 3-(6-(6-(Difluoromethyl)imidazo[1,2-b]pyridazin-3-yl)pyrimidin-4-yl)-N-(2-hydroxyethyl)pyrrolidine-1-carboxamide] | > 5000 | 10 to 1000
CS(=O)(=O)CCN1CCC(c2cc(-c3cnc4ccc(C(F)F)nn34)ncn2)C1 (centres unmarked) [II-255, 6-(Difluoromethyl)-3-(6-(1-(2-(methylsulfonyl)ethyl)pyrrolidin-3-yl)pyrimidin-4-yl)imidazo[1,2-b]pyridazine] | > 5000 | 10 to 1000
CS(=O)(=O)N1CCC2(CCCCN2c2cc(-c3cnc4ccc(C(F)F)nn34)ncn2)C1 (centres unmarked) [II-256, 6-(6-(6-(Difluoromethyl)imidazo[1,2-b]pyridazin-3-yl)pyrimidin-4-yl)-2-(methylsulfonyl)-2,6-diazaspiro[4.5]decane] | > 5000 | 10 to 1000
CC1(C)CN(c2cc(-c3cnc4ccc(C(F)F)nn34)ncn2)C[C@H](CNS(C)(=O)=O)O1 [II-257, (R)—N-((4-(6-(6-(Difluoromethyl)imidazo[1,2-b]pyridazin-3-yl)pyrimidin-4-yl)-6,6-dimethylmorpholin-2-yl)methyl)methanesulfonamide] | 500 to 5000 | 10 to 1000
CS(=O)(=O)NCC1CN(c2cc(-c3cnc4ccc(C(F)F)nn34)ncn2)CC(F)(F)C1 (centres unmarked) [II-258, N-((1-(6-(6-(Difluoromethyl)imidazo[1,2-b]pyridazin-3-yl)pyrimidin-4-yl)-5,5-difluoropiperidin-3-yl)methyl)methanesulfonamide] | < 500 | < 10
CN(C)C1CN(c2cc(-c3cnc4ccc(C(F)F)nn34)ncn2)CC(CNS(C)(=O)=O)C1(F)F (centres unmarked) [II-259, N-((1-(6-(6-(Difluoromethyl)imidazo[1,2-b]pyridazin-3-yl)pyrimidin-4-yl)-5-(dimethylamino)-4,4-difluoropiperidin-3-yl)methyl)methanesulfonamide] | < 500 | < 10
CN(C)C1CN(c2cc(-c3cnc4ccc(C(F)F)nn34)ncn2)CC(CNS(C)(=O)=O)C1(F)F (centres unmarked) [II-260, N-((1-(6-(6-(Difluoromethyl)imidazo[1,2-b]pyridazin-3-yl)pyrimidin-4-yl)-5-(dimethylamino)-4,4-difluoropiperidin-3-yl)methyl)methanesulfonamide] | 500 to 5000 | 10 to 1000
CC(=O)NCC1CCCN(c2cc(-c3cnc4ccc(C(F)F)nn34)ncn2)C1 (centres unmarked) [II-261, N-((1-(6-(6-(Difluoromethyl)imidazo[1,2-b]pyridazin-3-yl)pyrimidin-4-yl)piperidin-3-yl)methyl)acetamide] | 500 to 5000 | 10 to 1000
O=S(=O)(NCC1CCCN(c2cc(-c3cnc4ccc(C(F)F)nn34)ncn2)C1)C1CC1 (centres unmarked) [II-262, N-((1-(6-(6-(Difluoromethyl)imidazo[1,2-b]pyridazin-3-yl)pyrimidin-4-yl)piperidin-3-yl)methyl)cyclopropanesulfonamide] | < 500 | < 10
CCC1COC(CNS(C)(=O)=O)CN1c1cc(-c2cnc3ccc(C(F)F)nn23)ncn1 (centres unmarked) [II-267, N-((4-(6-(6-(Difluoromethyl)imidazo[1,2-b]pyridazin-3-yl)pyrimidin-4-yl)-5-ethylmorpholin-2-yl)methyl)methanesulfonamide] | 500 to 5000 | 10 to 1000
CC1CCC(CNS(C)(=O)=O)C(C)N1c1cc(-c2cnc3ccc(C(F)F)nn23)ncn1 (centres unmarked) [II-268, N-((1-(6-(6-(Difluoromethyl)imidazo[1,2-b]pyridazin-3-yl)pyrimidin-4-yl)-2,6-dimethylpiperidin-3-yl)methyl)methanesulfonamide] | < 500 | < 10
C[C@H]1CN(c2cc(-c3cnc4ccc(C(F)F)nn34)ncc2F)C[C@@H](CNS(C)(=O)=O)C1(F)F [II-270, N-[[(3S,5S)-1-[2-[6-(Difluoromethyl)imidazo[1,2-b]pyridazin-3-yl]-5-fluoro-4-pyridyl]-4,4-difluoro-5-methyl-3-piperidyl]methyl]methanesulfonamide] | 500 to 5000 | < 10
CC1CCC(CNS(C)(=O)=O)CN1c1cc(-c2cnc3ccc(C(F)F)nn23)ncc1F (centres unmarked) [II-271, N-[[1-[2-[6-(Difluoromethyl)imidazo[1,2-b]pyridazin-3-yl]-5-fluoro-4-pyridyl]-6-methyl-3-piperidyl]methyl]methanesulfonamide] | 500 to 5000 | 10 to 1000
O=S(=O)(NCC1CCCN(c2cc(-c3cnc4ccc(C(F)F)nn34)ncn2)C1)C1CNC1 (centres unmarked) [II-272, N-((1-(6-(6-(Difluoromethyl)imidazo[1,2-b]pyridazin-3-yl)pyrimidin-4-yl)piperidin-3-yl)methyl)azetidine-3-sulfonamide] | > 5000 | 10 to 1000
CS(=O)(=O)N1CC2(CN(c3cc(-c4cnc5ccc(C(F)F)nn45)ncn3)CCO2)C1 [II-273, 8-(6-(6-(Difluoromethyl)imidazo[1,2-b]pyridazin-3-yl)pyrimidin-4-yl)-2-(methylsulfonyl)-5-oxa-2,8-diazaspiro[3.5]nonane] | 500 to 5000 | 10 to 1000
FC(F)c1ccc2ncc(-c3cc(N4CCC5C(C4)C5(F)F)ncn3)n2n1 (centres unmarked) [II-274, 3-(6-(7,7-Difluoro-3-azabicyclo[4.1.0]heptan-3-yl)pyrimidin-4-yl)-6-(difluoromethyl)imidazo[1,2-b]pyridazine] | > 5000 | 10 to 1000
CS(=O)(=O)N1CCCC2(CN(c3cc(-c4cnc5ccc(C(F)F)nn45)ncn3)C2)C1 [II-279, 6-(Difluoromethyl)-3-(6-(6-(methylsulfonyl)-2,6-diazaspiro[3.5]nonan-2-yl)pyrimidin-4-yl)imidazo[1,2-b]pyridazine] | > 5000 | 10 to 1000
CS(=O)(=O)N1CCOC2(CN(c3cc(-c4cnc5ccc(C(F)F)nn45)ncn3)C2)C1 [II-280, 2-(6-(6-(Difluoromethyl)imidazo[1,2-b]pyridazin-3-yl)pyrimidin-4-yl)-8-(methylsulfonyl)-5-oxa-2,8-diazaspiro[3.5]nonane] | > 5000 | 10 to 1000
CS(=O)(=O)N1CC2(CCCN(c3cc(-c4cnc5ccc(C(F)F)nn45)ncn3)C2)C1 [II-281, 6-(Difluoromethyl)-3-(6-(2-(methylsulfonyl)-2,6-diazaspiro[3.5]nonan-6-yl)pyrimidin-4-yl)imidazo[1,2-b]pyridazine] | < 500 | < 10
